Data as given in patent US20250230165A1, “HETEROCYCLIC COMPOUNDS FOR USE IN THE TREATMENT OF CANCER” (ARTIOS PHARMA LIMITED, priority 2021, published 2025).

Molecular target: T1, Human Polθ polymerase domain (aa1820-2590) (Homo sapiens, UniProt O75417)
T1 construct: Human Polθ polymerase domain (aa1820-2590) was expressed in E. coli; made in house; host or cells: E. coli
T1 sequence (O75417 1820-2590): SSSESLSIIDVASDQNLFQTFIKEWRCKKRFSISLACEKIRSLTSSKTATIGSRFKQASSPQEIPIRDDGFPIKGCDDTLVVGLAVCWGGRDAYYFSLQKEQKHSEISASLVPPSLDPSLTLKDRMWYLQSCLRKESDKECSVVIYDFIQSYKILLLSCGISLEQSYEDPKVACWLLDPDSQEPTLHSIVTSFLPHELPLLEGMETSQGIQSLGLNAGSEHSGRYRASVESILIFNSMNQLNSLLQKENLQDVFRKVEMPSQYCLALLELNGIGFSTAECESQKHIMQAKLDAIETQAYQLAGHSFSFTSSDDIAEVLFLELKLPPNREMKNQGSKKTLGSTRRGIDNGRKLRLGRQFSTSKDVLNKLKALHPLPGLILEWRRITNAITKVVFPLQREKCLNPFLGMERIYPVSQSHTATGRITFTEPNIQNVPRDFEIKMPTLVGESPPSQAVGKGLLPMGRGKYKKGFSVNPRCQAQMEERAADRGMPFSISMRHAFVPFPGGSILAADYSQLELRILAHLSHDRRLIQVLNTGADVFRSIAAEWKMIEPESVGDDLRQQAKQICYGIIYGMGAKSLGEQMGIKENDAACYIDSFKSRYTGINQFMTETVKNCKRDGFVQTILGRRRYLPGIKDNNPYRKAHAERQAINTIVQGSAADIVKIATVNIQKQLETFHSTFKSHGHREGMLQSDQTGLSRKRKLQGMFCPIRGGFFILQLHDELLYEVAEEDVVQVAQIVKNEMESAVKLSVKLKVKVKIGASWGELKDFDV
Test: Polθ Polymerase Domain Kinact/KI Assay (PicoGreen)
Format: biochemical
Settings: 0.8 nM Polθ, 100 nM DNA substrate, kobs vs [I] fit for 2-step covalent inhibitor
Outline: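 Enzyme 0.8 nM, annealed DNA substrate 100 nM, […]; 25 mM Tris pH 7.5, 5% glycerol, 0.01% Triton X-100, 0.1 mg/ml BSA, 1 mM DTT, 1% DMSO. Quench with EDTA at timepoints to 60 min; PicoGreen read. kobs from time courses → Kinact/KI.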

SMILES | Kinact/Kl [M⁻¹ s⁻¹]
C=C(CN(C)C)C(=O)N1CC(CCCCN2C[C@H]3CC(=O)N(c4cc(C(F)(F)F)cc(C)n4)[C@@H]3C(=O)N(C)c3cccc(C)c32)C1 [Example 183, (3aR,11aS)-5-(4-(1-(2-((dimethyl-amino)methyl)-acryloyl)azetidin-3-yl)butyl)-6,10-dimethyl-1-(6-methyl-4-(trifluoro-methyl)pyridin-2-yl)-1,3a,4,5,10,11a-hexahydro-2H-benzo[b]pyrrolo [2,3-f][1,4]diazo-cine-2,11(3H)-dione] | 3.8e+06
C=CC(=O)N1CC(N2CC[C@@H](CCN3C[C@H]4CC(=O)N(c5cc(C(F)(F)F)cc(C)n5)[C@@H]4C(=O)N(C)c4cccc(Cl)c43)C2)C1 [Example 220, (3aR,11aS)-5-(2-((S)-1-(1-acryloylazetidin-3-yl)pyrrolidin-3-yl)ethyl)-6-chloro-10-methyl-1-(6-methyl-4-(trifluoromethyl)pyridin-2-yl)-1,3a,4,5,10,11a-hexahydro-2H-benzo[b]pyrrolo [2,3-f][1,4] diazocine-2,11(3H)-dione] | 3.66e+06
C=CC(=O)N1CC(n2cnc(CN3C[C@H]4CC(=O)N(c5cc(C(F)(F)F)cc(C)n5)[C@@H]4C(=O)N(C)c4cccc(C)c43)n2)C1 [Example 139, (3aR,11aS)-5-((1-(1-acryloylazetidin-3-yl)-1H-1,2,4-triazol-3-yl)methyl)-6,10-dimethyl-1-(6-methyl-4-(trifluoromethyl)pyridin-2-yl)-1,3a,4,5,10,11a-hexahydro-2H-benzo[b]pyrrolo[2,3-f][1,4]diazocine-2,11(3H)-dione] | 2.37e+06
C#CC(=O)N1Cc2nc(CN3C[C@H]4CC(=O)N(c5cc(C(F)(F)F)cc(C)n5)[C@@H]4C(=O)N(C)c4cccc(Cl)c43)cn2C[C@@H]1C (racemic) [Example 172a, (3aR,11aS)-6-chloro-10-meth-yl-1-(6-methyl-4-(trifluorometh-yl)pyridin-2-yl)-5-(((S/R)-6-meth-yl-7-propioloyl-5,6,7,8-tetra-hydroimidazo [1,2-a]pyrazin-2-yl)methyl)-1,3a, 4,5,10,11a-hexa-hydro-2H-benzo [b]pyrrolo[2,3-f] [1,4]diazocine-2,11(3H)-dione] | 900000
Cc1cc(C(F)(F)F)cc(N2C(=O)C[C@@H]3CN(CCCC(F)(F)CNC(=O)/C=C/CN(C)C)c4c(Cl)cccc4N(C)C(=O)[C@H]32)n1 [Example 296, (E)-N-(5-((3aR,11aS)-6-chloro-10-methyl-1-(6-methyl-4-(trifluoromethyl)pyridin-2-yl)-2,11-dioxo-1,2,3,3a,4,10,11,11a-octahydro-5H-benzo[b]pyrrolo[2,3-f][1,4]diazocin-5-yl)-2,2-difluoropentyl)-4-(dimethylamino)but-2-enamide] | 3e+06
C=CC(=O)N1CC(c2noc(CN3C[C@H]4CC(=O)N(c5cc(C(F)(F)F)cc(C)n5)[C@@H]4C(=O)N(C)c4cccc(F)c43)n2)C1 [Example 102, (3aR,11aS)-5-((3-(1-acryloylazetidin-3-yl)-1,2,4-oxadiazol-5-yl)methyl)-6-fluoro-10-methyl-1-(6-methyl-4-(trifluoromethyl)pyridin-2-yl)-1,3a,4,5,10,11a-hexahydro-2H-benzo[b]pyrrolo[2,3-f][1,4]diazocine-2,11(3H)-dione] | 1.16e+06
C=CC(=O)N1CC2(CN(CCN3C[C@H]4CC(=O)N(c5cc(C(F)(F)F)cc(C)n5)[C@@H]4C(=O)N(C)c4cccc(F)c43)CCN2C(C)=O)C1 [Example 36, (3aR,11aS)-5-(2-(5-acetyl-2-acryloyl-2,5,8-triazaspiro[3.5]nonan-8-yl)ethyl)-6-fluoro-10-methyl-1-(6-methyl-4-(trifluoromethyl)pyridin-2-yl)-1,3a,4,5,10,11a-hexahydro-2H-benzo[b]pyrrolo[2,3-f][1,4]diazocine-2,11(3H)-dione] | 1.47e+06
